Data reported in PMC5394417, “Investigating the molecular mechanism of positive and negative allosteric modulators in the calcium-sensing receptor dimer” (Scientific Reports, 2017).
pEC50: −log10 of the molar value. Several values for one entry are separate records, joined by “and”; a condition that tells them apart may be missing. Equal entries are not always repeated.

Target: T1, HA-S170A CaSR mutant (ATD mutant) (Rattus norvegicus, UniProt P48442, S170A)
T1 construct: mGluR5 signal peptide (N); expressed in transfected cells; host or cells: HEK293T
T1 sequence (P48442 20-1079 S170A): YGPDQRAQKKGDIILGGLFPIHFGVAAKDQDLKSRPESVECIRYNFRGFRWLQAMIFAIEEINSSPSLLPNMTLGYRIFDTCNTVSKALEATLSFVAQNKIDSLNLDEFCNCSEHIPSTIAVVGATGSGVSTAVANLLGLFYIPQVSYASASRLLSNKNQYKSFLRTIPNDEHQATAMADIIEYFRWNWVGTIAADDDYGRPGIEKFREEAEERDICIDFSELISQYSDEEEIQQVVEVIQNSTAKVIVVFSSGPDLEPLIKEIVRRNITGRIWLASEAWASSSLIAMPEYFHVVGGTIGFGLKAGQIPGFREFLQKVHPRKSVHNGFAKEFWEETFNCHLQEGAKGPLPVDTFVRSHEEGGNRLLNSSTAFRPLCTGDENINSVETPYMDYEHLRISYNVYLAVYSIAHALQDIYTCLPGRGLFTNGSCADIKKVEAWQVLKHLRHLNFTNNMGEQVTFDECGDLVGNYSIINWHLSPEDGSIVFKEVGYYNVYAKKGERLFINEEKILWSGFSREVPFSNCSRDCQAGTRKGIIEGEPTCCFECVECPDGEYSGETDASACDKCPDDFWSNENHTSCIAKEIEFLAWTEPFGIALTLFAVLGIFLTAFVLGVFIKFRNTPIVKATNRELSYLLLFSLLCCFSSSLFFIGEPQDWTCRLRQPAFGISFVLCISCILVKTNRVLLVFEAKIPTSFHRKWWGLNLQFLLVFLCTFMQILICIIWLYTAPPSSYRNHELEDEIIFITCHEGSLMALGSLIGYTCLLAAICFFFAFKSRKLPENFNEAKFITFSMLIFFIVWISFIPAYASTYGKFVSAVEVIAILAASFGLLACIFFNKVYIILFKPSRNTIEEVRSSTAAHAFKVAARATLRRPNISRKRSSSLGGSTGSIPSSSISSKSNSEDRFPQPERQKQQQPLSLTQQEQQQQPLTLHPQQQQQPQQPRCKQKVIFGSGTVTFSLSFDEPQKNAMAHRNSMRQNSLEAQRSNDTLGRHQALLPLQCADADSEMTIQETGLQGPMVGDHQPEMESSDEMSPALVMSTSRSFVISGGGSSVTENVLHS
Experiment: IP-One assay, HEK293T transiently transfected
Format: cell-based
Experimental: Human embryonic kidney (HEK) 293T cells were cultured in DMEM supplemented with 10% dFBS and 1% P/S at 37 °C and 5% CO2. 48 h prior to assay, transient transfection was performed using Lipofectamine 2000 as the transfection reagent. White opaque 96-well culture plates (PerkinElmer, Waltham, MA, USA) were used for the ELISA and the TR-FRET dimerization assay, while clear tissue culture treated 96-well plates (Corning, Corning, NY, USA) were used for the IP-One assay. Both plate types were coated with poly-D-lysine before addition of cells and transfection mix. 0.25 μl/well of Lipofectamine 2000 were diluted in 25 μl/well of Opti-MEM and incubated at room temperature (RT) for 5 min. 0.03 μg/well of DNA was diluted in 25 μl/well of Opti-MEM, and subsequently mixed with the Lipofectamine 2000 dilution and incubated 20 min at RT before addition to the plates. Cell suspensions of 170.000 HEK293T cells/mL were prepared in complete growth medium and 100 μl/well (17.000 cells/well) was added to the plates, which were incubated for 48 h at 37 °C and 5% CO2 before performing assays.
Functional activity was measured using the IP-One assay, which is an IP1 accumulation assay. For agonist testing, ligands were prepared in final concentrations in ligand buffer (HBSS, 20 mM HEPES, pH 7.4 supplemented with 20 mM LiCl). Cells were washed once with 100 μl/well of assay buffer (HBSS, 20 mM HEPES, pH 7.4) and 50 μl/well of agonist solution was added after which plates were incubated at 37 °C for 30 min. Subsequently, ligand solutions were removed and cells were washed with 100 μl/well of assay buffer. Cell lysis was performed by addition of 30 μl/well of IP-One Conjugate & Lysis Buffer (Cisbio Bioassays, Codolet, France) and plates were incubated at RT for 30 min. Afterwards, 30 μl/well of assay buffer was added to dilute the cell lysate. 10 μl/well of cell lysate was transferred from the 96-well plate to a 384-well Optiplate and 10 μl/well of detection solution (Assay buffer + 2.5% of anti-IP1 antibody cryptate Terbium conjugate + 2.5% IP1-d2 conjugate (Cisbio Bioassays, Codolet, France)) was also added. The 384-well plate was incubated for 1 h at RT in dark before being measured on an EnVision plate reader (PerkinElmer, Waltham, MA, USA). Upon excitation at 340 nm, emission at 615 nm and 665 nm was measured, and the FRET ratio (665 nm/615 nm) was converted to IP1 concentrations by interpolating values from an IP1 standard curve generated from a provided IP1 calibrator (Cisbio Bioassays, Codolet, France). When testing allosteric modulators, cells were pre-incubated for 30 min at 37 °C with 50 μl/well of ligand buffer supplemented with allosteric modulator and a final concentration of 1% DMSO. Afterwards, the buffer solution was removed and 50 μl/well of agonist solution in ligand buffer supplemented with allosteric modulator and a final concentration of 1% DMSO was added. Plates were incubated for 30 min at 37 °C followed by one wash in 100 μl/well of assay buffer. Cell lysis and detection was performed as described above.

Row | SMILES | pEC50 (HA-S170A, Ca^2+ alone) | Max ± S.E.M. (HA-S170A, normalized to maximum response of WT CaSR, at highest tested Ca^2+ concentration) | potentiation of Ca^2+-mediated response (S170A co-expressed with pEGFPN1, 23 mM Ca^2+, 0.05, 0.1 and 1 μM NPS R-568)
1 | [Ca+2] [Ca^2+] | < 1.35 | 17% and 17 ± 0.7% | –
2 | COc1cccc([C@@H](C)NCCCc2ccccc2Cl)c1.Cl [NPS R-568, NPS R-568 hydrochloride] | – | – | concentration-dependent potentiation
